Data taken from article PMC7801313, “Effect of lurbinectedin on the QTc interval in patients with advanced solid tumors: an exposure–response analysis” (Cancer Chemotherapy and Pharmacology, 2020).

Columns and labels:
[1] = system: patients with advanced solid tumors; experiment: QT evaluation study, by time point ECG analysis; type: in vivo, human; details: before vs after prophylactic palonosetron 0.25 mg i.v., cycle 1 day 1
Protocol: This was a QT evaluation study (EudraCT No. 2015-000206-18; ClinicalTrials.gov: NCT02451007) performed at a subset of sites participating in a multicenter, open-label, exploratory, phase II basket clinical trial (EudraCT No: 2014-003773-42; ClinicaTrials.gov: NCT02454972) conducted in patients with selected advanced solid tumors. The schedule used in this QT evaluation study was that evaluated in the basket trial: lurbinectedin 3.2 mg/m^2 given as a 1-h i.v. infusion q3wk.
A screening ECG was collected between day -10 and day -2 before the first lurbinectedin infusion (day 1 of cycle 1) and transmitted to the central ECG laboratory to confirm the patient’s eligibility.
On day 1 of cycle 1, two baseline triplicate ECGs (three 10-s digital ECGs in close succession) were collected: one before administration of prophylactic medication or pre-dose 1, and the other after antiemetic prophylactic medication (palonosetron 0.25 mg i.v.) and before the start of the lurbinectedin infusion or pre-dose 2 (also on cycle 2).
In cycle 1 and cycle 2, the following triplicate ECGs were collected 5–10 min before their time-matched PK time points: 5 min before end of the lurbinectedin infusion (EOI), 30 min, 1, 3, 24, 72 (only on cycle 1), and 168 h after EOI.
A 12-lead automated digital ECG recorder [Mortara Instrument (Milwaukee, WI, USA) ELI-150 ECG 12-lead digital recorder] was provided by a third-party central ECG laboratory (eResearchTechnology, Inc., Philadelphia, PA, USA). Analysis and reporting of ECG data were performed by a limited number of skilled readers who were blinded to treatment time point. ECG review of a particular patient was performed by a single reader. Interval duration measurements were collected using computer-assisted caliper placements on three consecutive beats. A cardiologist then verified the interval durations and performed the morphology analysis, noting any T-U wave complex compatible with an effect on cardiac repolarization. The ECG analysis was conducted in Lead II or in Lead V5 if Lead II was not analyzable. If Lead V5 was not analyzable, then Lead V2 was used, and followed by the most appropriate lead if necessary. The mean of triplicate ECG measures at each time point for each patient was used for analyses.
Fridericia’s formula [6] is currently considered the most accurate method for correcting the effect of HR on QT interval [7], and was used as the main method for HR correction for QT (QTcF). Nevertheless, graphical inspection of QTcF and QT corrected by Bazett’s formula (QTcB) versus RR interval plots and statistical comparison of resulting squared linear regression slopes (R^2) was performed.
The primary endpoint was the change in QTc corrected by the Fridericia’s formula (ΔQTcF) between each scheduled post-baseline ECG time point and baseline at cycle 1. A patient was considered evaluable for the primary endpoint if he/she had baseline and one or more post-baseline ECG assessments.
Secondary endpoints were the ΔQTcF/lurbinectedin plasma concentration relationship, and change in other ECG parameters (i.e., HR, QRS, and PR).
The primary comparison was ΔQTcF at each ECG time point. A non-inferiority criterion of 20 ms was used to establish the absence of post-baseline QTc prolongation when compared to baseline. An analysis of variance model with mixed effects was fitted, with ΔQTc data as the dependent variable and ECG time point as the fixed effects, and patient as random effect.
Using the estimated least square means (LSM) and intra-patient standard deviation (Std) obtained from this model, a two-sided 90% confidence interval (CI) was calculated for each LSM ΔQTc. Non-inferiority was to be concluded if the upper bound (UB) of the one-sided 95% CI fell below 20 ms at each ECG time point.

[2] = system: patients; details: cited from earlier work

O=C1c2cccc3c2[C@H](CCC3)CN1[C@@H]1CN2CCC1CC2 [prophylactic medication, palonosetron, reference compound]
difference between mean pre-dose 1 and mean pre-dose 2 QTcF [1]: 1.3 ms

COc1cc2c(cc1O)CCN[C@]21CS[C@@H]2c3c(OC(C)=O)c(C)c4c(c3[C@H](COC1=O)N1[C@@H]2[C@H]2c3c(cc(C)c(OC)c3O)C[C@@H]([C@@H]1O)N2C)OCO4 [trabectedin]
heart rate change ([2]; 3-h i.v. infusion, largest increases at 4 h after start of infusion): heart rate increased slightly
cardiac risk profile [2]: low cardiac risk profile
